Results on two compounds are retold here after publication PMC3740683, “ML212: A small-molecule probe for investigating fluconazole resistance mechanisms in Candida albicans” (Beilstein Journal of Organic Chemistry, 2013).

The term IC50 denotes the concentration that gives 50% inhibition. A word on the solubility: it is the concentration that dissolves in the medium under given conditions.

One data set deals with C. albicans CaCi-2. Description: Primary screen and dose-response retest: CaCi-2 with 8 µg/mL fluconazole (Alamar Blue growth). The class given is cell-based, Candida albicans. Particulars: Candida albicans, CACI2. On the procedure:
All of the compounds prepared above were evaluated for their ability to chemosensitize the C. albicans test strains CaCi-2 and CaCi-8 towards fluconazole. […] The DMSO/fluconazole combination served as an internal control.
Protocols for cellular assays
Primary screen and dose-response retest: CaCi-2 with 8 µg/mL fluconazole […]
Clear, flat-bottom, black, 384-well plates (Corning Catalog no. 3712BC; Lot no. […]
DMSO; Fluconazole (Sequoia Research Products Ltd) 2 mg/mL stock solution in PBS; […]
(AG Scientific Catalog no. DAL 1100; Lot no.151016SA); PBS without calcium and magnesium (Cellgro Catalog no. 21-040-CV)
(§1) Synthetic defined growth medium
(§2) RPMI 1640 medium, (powder without sodium bicarbonate; Invitrogen Catalog no. […]
no. 028KO760); Glucose 40% (w/v) in water (Sigma Catalog no. G-5400); MOPS buffer […]
1) Prepare 1× RPMI medium by dissolving 10.4 grams powdered medium in 800 […]
(§3) 2) Add 34.52 g MOPS. While stirring, adjust pH to 7.0 with 10 N NaOH.
(§4) 3) Add 10 mL uridine solution, 50 mL glucose solution, adjust final volume to 1000 […]
Test Strain: C. albicans CaCi-2
1) Inoculate 500 µL of strain from cryopreserved stock into a 250 mL shaker flask containing 30 mL growth medium. Shake at 30 °C overnight.
2) Read OD 600 of 1 mL fungal culture in a cuvette using a standard optical density reader (Eppendorf BioPhotometer Plus), with growth medium as a background […]
3) Dilute to desired volume of fungal inoculums according to the following formula:
(1/OD measured) × (desired final volume of inoculum) × 0.3 = volume of fungal culture (µL) to add to desired volume of growth medium. When added to media in wells, this yields a calculated starting OD of the fungal inoculum of 0.00015.
1) Add fluconazole stock solution to fungal inoculum to achieve a final concentration […]
2) Add Pen/Strep at 0.1 mL per 10 mL media (1% v/v).
3) Use a Thermo Combi nL to dispense 20 µL/well of assay media into all wells.
4) Pin 25 nL test compound from compound plates into assay plates using CyBi- […]
5) Dispense 20 µL/well of culture into the assay media in all wells.
6) Incubate plates in a humidified (90% humidity) Liconic incubator at 37 °C without […]
7) Dilute Alamar Blue Reagent 1:40 in Ca/Mg-free PBS.
8) To all plates, add 5 µL/well of the diluted Alamar to a final dilution factor of 1:200.
9) Incubate the plates for an additional 2 hours.
10) Read the relative fluorescence intensity (RFU) of wells on a standard plate reader as a measure of relative fungal growth. EnVision (Perkin Elmer) plate reader setup: Ex 544 nm, Em 590 nm, bandwidth 12 nm, top read. […]
For orientation: Resazurin is reduced to fluorescent resorufin, in cell work by metabolically active cells.

For another data set, the system named is C. albicans CaCi-8. Description: Secondary assay 1: CaCi-8 with 8 µg/mL fluconazole (Alamar Blue growth). The class given is cell-based, Candida albicans. As to conditions: Candida albicans. On the procedure: All of the compounds prepared above were evaluated for their ability to chemosensitize the C. albicans test strains CaCi-2 and CaCi-8 towards fluconazole. […] The DMSO/fluconazole combination served as an internal control. […]
(1/OD measured) × (desired final volume of inoculum) × 0.3 = volume of fungal culture (µL) to add to desired volume of growth medium. When added to media in wells, this yields a calculated starting OD of the fungal inoculum of 0.00015. […]
3) Use a Thermo Combi nL to dispense 20 µL/well of assay media into all wells. […]
EnVision (Perkin Elmer) plate reader setup: Ex 544 nm, Em 590 nm, bandwidth 12 nm, top read.
Secondary assay 1: CaCi-8 with 8 µg/mL fluconazole […]
35808016); geldanamycin (AG Scientific Catalog no. […]
PBS w/o calcium and magnesium (Cellgro Catalog no. 21-040-CV)
as §1, §2
no. 028K0760); glucose 40% (w/v) in water (Sigma Catalog no. G-5400); MOPS buffer […]
1) Prepare 1× RPMI medium by dissolving 10.4 g powdered medium in 800 mL […]
as §3, §4
Test strain: C. albicans CaCi-8
1) Inoculate 500 µL of strain from cryopreserved stock into a 250 mL shaker flask containing 30 mL growth medium. Shake at 30 °C overnight (16 hours).
2) Read OD 600 of 1 mL of fungal culture in a cuvette using a standard optical density reader (Eppendorf BioPhotometer Plus), with growth medium as a […]
3) Dilute to a desired volume of fungal inoculum according to following formula: […]
1) Add fluconazole stock solution to fungal inoculum to achieve 8 µg/mL.
2) Add Pen/Strep to media to 1% concentration.
4) Dispense geldanamycin in positive control wells using Thermo Combi nL for a final concentration of 3 µM.
5) Then, pin 100 nL of test compound from compound plates into assay plates using a CyBi-Well pin tool.
6) Dispense 20 µL/well of culture into the assay media in all wells.
7) Incubate the plates in a humidified (90% humidity) Liconic incubator at 37 °C without agitation for 48 hours.
8) Dilute Alamar Blue 1:40 in Ca/Mg-free PBS.
9) To all plates, add 5 µL/well of the diluted Alamar Blue to plates to a final dilution […]
10) Incubate the plates for 2 hours. […]

Data set [1] is described as follows: Secondary assay 3: fibroblast toxicity. The class given is cell-based. Particulars: mouse, NIH-3T3 fibroblasts, murine 3T3 fibroblasts. The method, then:
11) Read relative fluorescence intensity (RFU) of wells on a standard plate reader as […]
measure of relative fungal growth. EnVision (Perkin Elmer) plate reader settings: […]
Secondary assay 3: fibroblast toxicity
Clear, flat-bottom, black, 384-well plates (Corning Catalog no. 3712BC Lot no.
35808016); geldanamycin (AG Scientific Catalog no. G-1047) 15 mM stock solution in […]
DMSO; fluconazole (Sequoia Research Ltd.) 2 mg/mL stock solution in PBS; Alamar […]
Blue (AG Scientific Catalog no. DAL1100, Lot no. 151016SA); PBS w/o calcium and […]
magnesium (Cellgro Catalog no. 21-040-CV)
Optimem medium (Invitrogen Catalog no. 31985-070; Lot no. 548536); 2.5% (v/v) fetal […]
bovine serum (Hyclone Catalog no.30071.03; Lot no. ARF26748); 1% (v/v) Pen/Strep […]
Test strain: NIH-3T3 mammalian fibroblasts (ATCC CRL No. 1658) […]
1) Plate cells in 384-well plates at 6,000 cells/well in 20 µL assay medium.
2) Incubate plates overnight at 37 °C under 5% CO2.
1) After overnight culture, pin compounds into wells at 100 nL/well using the CyBio […]
CyBi-Well pinning instrument.
2) After pinning compounds, add 20 µL of assay medium supplemented with […]
fluconazole to each well. […]
6) Read the relative fluorescence intensity (RFU) of wells on a standard plate reader as a measure of relative cell growth. EnVision (Perkin Elmer) plate reader […]
setup: Ex 544 nm, Em […], bandwidth12 nm, top read.

The next data set in a line: Solubility in PBS. In kind it is physicochemical. As to conditions: aqueous buffer.
The test system of the next data set is CaCi-2. On the set-up: method as in PMID 8161633. As to conditions: CaCi-2 clinical isolate; cited from earlier work.
A further data set relates to CaCi-8. Further details: method as in PMID 8161633. Particulars: CaCi-8 clinical isolate; cited from earlier work.

In brackets after ≈: the same amount, converted by molar mass. Like-named read-outs stand apart in the source and are kept apart here. A value given as a limit tells only on which side of the number the result lay.

Turning to `COC(=O)Cn1nc(-c2ccccc2)c2ccccc21` [Compound 1], the IC50 with C. albicans CaCi-2 (37 °C, 48 hours, with test compound and 8 µg/mL (26 µM) fluconazole, average of at least three independent experiments in duplicate, inactive = negligible activity at concentrations below 26 µM) amounted to 2.2 ± 1 µM; in the data set with C. albicans CaCi-2 (commercial sample, hit revalidation, with 8 µg/mL fluconazole), 0.8 µM; with C. albicans CaCi-8 (CACI8, 48 h, read-out: CaCi-8 IC50) it was 3.5 ± 1.9 µM; in the data set on C. albicans CaCi-8 (CACI8, read-out: CaCi-8 IC50), 2.3 µM. The compound also displayed an IC50 at 48 h in data set [1] above 26 µM. The compound also registered a solubility in “Solubility in PBS” of 79 µM (≈ 21 µg/mL).
Consider `OC(Cn1cncn1)(Cn1cncn1)c1ccc(F)cc1F` [fluconazole], for which the “minimum inhibitory concentration (MIC)” value in the data set with CaCi-2 is reported as 2 µg/mL (≈ 6.53 µM); in the data set with CaCi-8, 8 µg/mL (≈ 26.1 µM).
